Results as given in patent US9452185B2, “Mesenchymal stem cells and supports for tissue regeneration, repair and reconstruction” (THE TEXAS A&M UNIVERSITY SYSTEM, priority 2009, dated 2016).
“Also recorded” adds a separate entry of the source.

Legend:
hMSCs [1] = experiment: Alkaline phosphatase (ALP) activity of hMSCs in osteogenic media; type: cell-based, human
Method: For non-mineralizing osteogenic differentiation, hMSCs were plated in 12-well plates at 100 cells cm^−2. Upon reaching about 70% confluency, the media was changed to osteogenic base media (OBM) containing 50 μg mL^−1 ascorbic acid and 5 mM β-glycerol phosphate and either GW9662 or DMSO. Media was changed every 2 days for 8-10 days following measurement of ALP activity. For this purpose, the monolayer was washed with PBS and then with ALP reaction buffer (100 mM Tris-HCl, pH 9, containing 100 mM KCl and 1 mM MgCl2). One half mL of ALP buffer then 0.5 mL p-nitrophenol phosphate (PNPP) was rapidly added to the wells. ALP activity was measured as the rate of PNPP conversion to p-nitrophenolate by monitoring the absorbance at 405 nm every 30 seconds for 9 minutes using a plate reader. The rates were normalized against cell number and statistically analyzed using one-way analysis of variance (ANOVA) and Tukey post test for multiple comparisons or by Student's t-test, for single, unrelated comparisons.
Early osteogenic differentiation and alkaline phosphatase assays. MSCs were plated in 6-well plates at an initial plating density of 100 cells per cm^2 and cultured in standard complete media for 6 days until semi-confluence (approximately 5,000 cells per cm^2). Osteogenic base media consisting of complete media containing 5 mM β-GP and 50 μg mL^−1 ascorbate-2-phosphate and the appropriate inhibitor or vehicle was then used to induce early osteogenic differentiation. Assays were allowed to proceed for 8-10 days with changes of media every 2 days. ALP assays were performed as previously described (Gunn et al., 2006, Stem Cells 24:986-991).
(§1) In order to characterize the influence of 7AIPM on osteogenic differentiation, hMSC's from two donors were cultured as described elsewhere herein with the addition of varying concentrations of the compound or vehicle to the media. Samples of the media were collected daily for analysis. These samples were analyzed for the presence of OPG and Dkk-1 using ELISA. Alkaline phosphatase activity of the monolayers and cell numbers were measured using a spectrophotometer.

hMSCs [2] = experiment: Microarray of cultured hMSCs after 8 days in osteogenic media (in vitro); type: cell-based, human; conditions: for transcript transducin-like enhancer of split-1 / transcripts Klf-6, caldesmon-1, gamma-aminobutyric acid B receptor-2, synaptotagmin like-2 / transcripts fibroblast growth factor-7, high mobility group AT-hook 2, Cdk5 and Abl enzyme substrate-1, amyloid beta precursor protein-binding family B2 / transcripts protocadherin-7, PR domain containing-1, gremlin-1, collectin subfamily member-12, stanniocalcin-2: 8 days, 200/800 nM BIO, 1.0/10 μM GW; for collagens and ECM proteins found in bone tissue (transcripts): vs vehicle control
Method: Array analysis. Transcriptome arrays were performed using Affimetrix apparatus and HG-U133 Plus 2.0 chips. Cytokine arrays on conditioned media were performed using a human cytokine array and analyzed using a digital imager. Effects of GSK3β and PPARγ inhibition on the transcriptome of hMSCs. […] After 8 days of culture, RNA microarrays were performed on the hMSCs.

osteoprotegerin (OPG) = experiment: OPG secretion by ELISA; type: cell-based, human; conditions: osteogenic medium lacking dex, 8 days
Method: as §1, with “ELISAs. ELISA for CXCL6, Dkk-1, GROa, GRO13, and OPG were carried out by using nonbiotinylated polyclonal capture antibodies and biotinylated detection antibodies that were commercially acquired on coated 96-well plates The biotinylated […] antibodies were detected by using horseradish peroxidase-conjugated streptavidin and TMB substrate. ELISA for IL-lb were performed by using commercially acquired kits. In” for “In”

Dkk-1 = Dkk-1 secretion by ELISA; type: cell-based, human; conditions: osteogenic medium lacking dex, 8 days
Method: as §1, with “ELISAs. ELISA for CXCL6, Dkk-1, GROa, GRO13, and OPG were carried out by using nonbiotinylated polyclonal capture antibodies and biotinylated detection antibodies that were commercially acquired on coated 96-well plates The biotinylated […] antibodies were detected by using horseradish peroxidase-conjugated streptavidin and TMB substrate. ELISA for IL-lb were performed by using commercially acquired kits. In” for “In”

hMSCs [3] = experiment: hMSC yield, cell cycle analysis and cleaved caspase-3 immunoblot; type: cell-based, human; conditions: for hMSC yield: BIO at concentrations greater than 400 nM, GW at tested doses; for cleaved caspase-3 (Asp175) immunoblot: whole cell extracts of treated hMSCs
Method: Cell cycle. Profiles were generated by fluorescence activated cell sorting and analyzed with software. Protein extraction, gel electrophoresis and western blotting. Nuclear extracts were performed by Triton extraction and differential centrifugation as previously described (Gregory et al., 2003, J Biol Chem 278:2806728078). Proteins were electrophoresed and blotted onto nitrocellulose using an electrophoresis system.

calvarial defects = experiment: Calvarial defect repair, 50 days (x-ray radio-opacity); type: in vivo, nude mice; conditions: for repair of cranial lesions (radio-opacity ratio lesioned/contralateral): day 50, 1×10^6 pretreated hMSCs in plasma, further doses day 14, 28, 42
Method: Calvarial lesions. MSCs were cultured in the presence of osteogenic base media containing the appropriate inhibitor or vehicle. After 8 days, they were suspended in human plasma and administered to nude mice that had received a circular lesion in the cranium. Subsequent doses of cells were administered by direct injection in plasma/thromboplastin mix.
X-ray imaging and quantification. Cranial bones were imaged by x-ray under anaesthesia. Digital images were be captured on a digital plate and processed on a phosphorimager reader and processed by volume analysis software.
Effects of GSKβ and PPARγ inhibition on repair of an induced cranial defect in mice. Given that BIO and GW accelerated osteogenic differentiation by human MSCs in vitro, experiments were conducted to test whether the treated hMSCs could repair a critical bone defect in vivo. Human MSCs were cultured in the presence of osteogenic medium lacking dex, but containing BIO (200 and 800 nM) or GW (1.0 and 10.0 μM). Calvarial lesions were generated in nude mice and 1×10^6 hMSCs, mixed with human plasma were applied followed by thromboplastin to initiate gelling. The scalp was sutured and the animals were allowed to heal. Initially, short-duration experiments were performed to monitor distribution of the hMSCs, and to ensure the cells had survived the implantation process. GFP-labeled hMSCs were administered and mice were sacrificed after 24 h. Upon histological analysis, a substantial number of GFP-labeled, healthy hMSCs had formed a thick layer over the injury and adjacent bone tissue (FIG. 24A, 24B). The hMSCs could be readily detected with an antibody for membrane localized human β-2 microglobulin (FIG. 24C, 24D). Robust antibody-detection of unmanipulated hMSCs, rather than lentiviral labeling was favored in long term experiments because very low passage hMSCs could be utilized, rather than genetically tagged preparations that had undergone a number of passages. Long term experiments were performed for 50 days with further doses of hMSCs administered at day 14, 28 and 42 by direct injection of a plasma:hMSC mixture under the scalp (FIG. 25A). At day 50, the crania were explanted and x-ray images of the calvarial lesions were taken. The digitized images were then analysed densitometrically to quantify the degree of bone accrual (FIG. 25B). The lesioned side was compared with the contralateral side and data were expressed as the ratio of radio-opacity on the lesioned side to the contralateral side. […] When the sections were stained with anti-β-2 microglobulin, isolated clusters of hMSCs from only control and GW groups were detected (FIGS. 27C and 27D).

[4] = osteogenic media without dexamethasone, 8 days
[5] = osteogenic medium lacking dex, 8 days

Compound: O=C1Nc2cc(Br)ccc2/C1=C1/Nc2ccccc2/C1=N\O [BIO, bromo-indirubin-3′-mono-oxime]
- ALP activity (hMSCs [1]; [4]): induced
- dose at which ALP activity dropped back to control levels (hMSCs [1]; [5]): exceeding 400 nM
- dose of maximal effect on ALP activity (hMSCs [1]; [5]): 100 to 200 nM
- transcript transducin-like enhancer of split-1 (hMSCs [2]): down-regulated
- transcripts Klf-6, caldesmon-1, gamma-aminobutyric acid B receptor-2, synaptotagmin like-2 (hMSCs [2]): significantly up-regulated
- transcripts fibroblast growth factor-7, high mobility group AT-hook 2, Cdk5 and Abl enzyme substrate-1, amyloid beta precursor protein-binding family B2 (hMSCs [2]): no change
- transcripts protocadherin-7, PR domain containing-1, gremlin-1, collectin subfamily member-12, stanniocalcin-2 (hMSCs [2]): significantly up-regulated
- collagens and ECM proteins found in bone tissue (transcripts) (hMSCs [2]): up-regulated
- secretion of OPG (osteoprotegerin (OPG)): rose in a dose dependent manner
- Dkk-1 secretion (Dkk-1): reduced
- cell cycle effect (hMSCs [3]; 800 nM BIO, 8 days): inhibit mitosis
- hMSC yield (hMSCs [3]): substantial reduction
- cleaved caspase-3 (Asp175) immunoblot (hMSCs [3]): no evidence of caspase 3 processing
- repair of cranial lesions (radio-opacity ratio lesioned/contralateral) (calvarial defects): no significant sign of bone repair

Compound: O=C(Nc1ccccc1)c1cc([N+](=O)[O-])ccc1Cl [GW9662, 2-chloro-5-nitro-N-phenyl-benzamide]
- ALP activity (hMSCs [1]; hMSCs in osteogenic media with GW9662 vs DMSO): dose-dependent increase; also recorded: substantially upregulated; also recorded: substantially up-regulated; also recorded: increased
- ALP activity (hMSCs [1]; [4]): induced
- dose at which ALP activity dropped back to control levels (hMSCs [1]; [5]): > 1.0 µM
- transcript transducin-like enhancer of split-1 (hMSCs [2]): down-regulated
- transcripts Klf-6, caldesmon-1, gamma-aminobutyric acid B receptor-2, synaptotagmin like-2 (hMSCs [2]): significantly up-regulated
- transcripts fibroblast growth factor-7, high mobility group AT-hook 2, Cdk5 and Abl enzyme substrate-1, amyloid beta precursor protein-binding family B2 (hMSCs [2]): significantly up-regulated
- transcripts protocadherin-7, PR domain containing-1, gremlin-1, collectin subfamily member-12, stanniocalcin-2 (hMSCs [2]): no change
- inflammatory mediator genes (IL1, IL8, CXCL chemokines) (hMSCs [2]; vs control): profoundly down-regulated
- collagens and ECM proteins found in bone tissue (transcripts) (hMSCs [2]): up-regulated
- dose of maximal stimulation of OPG secretion (osteoprotegerin (OPG)): 0.5 µM
- Dkk-1 secretion (Dkk-1): reduced
- hMSC yield (hMSCs [3]): without reduction in cellular yield
- cleaved caspase-3 (Asp175) immunoblot (hMSCs [3]): no evidence of caspase 3 processing
- improvement in healing compared with controls (calvarial defects; MSCs treated with GW9662 applied to calvaria bone defect): 2-3 fold
- lesion healing (calvarial defects; after 50 days of repeated cell administration): about 60%
- repair of cranial lesions (radio-opacity ratio lesioned/contralateral) (calvarial defects; listed as GW): significantly improved; also recorded: profoundly improved healing
